Measured values taken from patent US8623869B2, “Compounds useful as inhibitors of ATR kinase” (Vertex Pharmaceuticals Incorporated, priority 2010, dated 2014).

Each compound was assayed against T1, full-length ATR (Homo sapiens, UniProt Q13535) (assay: ATR Inhibition Assay (radioactive-phosphate incorporation)). Settings: Ki(app); 5 nM full-length ATR, 10 μM ATP, 800 μM target peptide, 25° C.
T1 construct: Assays were carried out at 25° C. in the presence of 5 nM full-length ATR
T1 sequence (Q13535 whole entry): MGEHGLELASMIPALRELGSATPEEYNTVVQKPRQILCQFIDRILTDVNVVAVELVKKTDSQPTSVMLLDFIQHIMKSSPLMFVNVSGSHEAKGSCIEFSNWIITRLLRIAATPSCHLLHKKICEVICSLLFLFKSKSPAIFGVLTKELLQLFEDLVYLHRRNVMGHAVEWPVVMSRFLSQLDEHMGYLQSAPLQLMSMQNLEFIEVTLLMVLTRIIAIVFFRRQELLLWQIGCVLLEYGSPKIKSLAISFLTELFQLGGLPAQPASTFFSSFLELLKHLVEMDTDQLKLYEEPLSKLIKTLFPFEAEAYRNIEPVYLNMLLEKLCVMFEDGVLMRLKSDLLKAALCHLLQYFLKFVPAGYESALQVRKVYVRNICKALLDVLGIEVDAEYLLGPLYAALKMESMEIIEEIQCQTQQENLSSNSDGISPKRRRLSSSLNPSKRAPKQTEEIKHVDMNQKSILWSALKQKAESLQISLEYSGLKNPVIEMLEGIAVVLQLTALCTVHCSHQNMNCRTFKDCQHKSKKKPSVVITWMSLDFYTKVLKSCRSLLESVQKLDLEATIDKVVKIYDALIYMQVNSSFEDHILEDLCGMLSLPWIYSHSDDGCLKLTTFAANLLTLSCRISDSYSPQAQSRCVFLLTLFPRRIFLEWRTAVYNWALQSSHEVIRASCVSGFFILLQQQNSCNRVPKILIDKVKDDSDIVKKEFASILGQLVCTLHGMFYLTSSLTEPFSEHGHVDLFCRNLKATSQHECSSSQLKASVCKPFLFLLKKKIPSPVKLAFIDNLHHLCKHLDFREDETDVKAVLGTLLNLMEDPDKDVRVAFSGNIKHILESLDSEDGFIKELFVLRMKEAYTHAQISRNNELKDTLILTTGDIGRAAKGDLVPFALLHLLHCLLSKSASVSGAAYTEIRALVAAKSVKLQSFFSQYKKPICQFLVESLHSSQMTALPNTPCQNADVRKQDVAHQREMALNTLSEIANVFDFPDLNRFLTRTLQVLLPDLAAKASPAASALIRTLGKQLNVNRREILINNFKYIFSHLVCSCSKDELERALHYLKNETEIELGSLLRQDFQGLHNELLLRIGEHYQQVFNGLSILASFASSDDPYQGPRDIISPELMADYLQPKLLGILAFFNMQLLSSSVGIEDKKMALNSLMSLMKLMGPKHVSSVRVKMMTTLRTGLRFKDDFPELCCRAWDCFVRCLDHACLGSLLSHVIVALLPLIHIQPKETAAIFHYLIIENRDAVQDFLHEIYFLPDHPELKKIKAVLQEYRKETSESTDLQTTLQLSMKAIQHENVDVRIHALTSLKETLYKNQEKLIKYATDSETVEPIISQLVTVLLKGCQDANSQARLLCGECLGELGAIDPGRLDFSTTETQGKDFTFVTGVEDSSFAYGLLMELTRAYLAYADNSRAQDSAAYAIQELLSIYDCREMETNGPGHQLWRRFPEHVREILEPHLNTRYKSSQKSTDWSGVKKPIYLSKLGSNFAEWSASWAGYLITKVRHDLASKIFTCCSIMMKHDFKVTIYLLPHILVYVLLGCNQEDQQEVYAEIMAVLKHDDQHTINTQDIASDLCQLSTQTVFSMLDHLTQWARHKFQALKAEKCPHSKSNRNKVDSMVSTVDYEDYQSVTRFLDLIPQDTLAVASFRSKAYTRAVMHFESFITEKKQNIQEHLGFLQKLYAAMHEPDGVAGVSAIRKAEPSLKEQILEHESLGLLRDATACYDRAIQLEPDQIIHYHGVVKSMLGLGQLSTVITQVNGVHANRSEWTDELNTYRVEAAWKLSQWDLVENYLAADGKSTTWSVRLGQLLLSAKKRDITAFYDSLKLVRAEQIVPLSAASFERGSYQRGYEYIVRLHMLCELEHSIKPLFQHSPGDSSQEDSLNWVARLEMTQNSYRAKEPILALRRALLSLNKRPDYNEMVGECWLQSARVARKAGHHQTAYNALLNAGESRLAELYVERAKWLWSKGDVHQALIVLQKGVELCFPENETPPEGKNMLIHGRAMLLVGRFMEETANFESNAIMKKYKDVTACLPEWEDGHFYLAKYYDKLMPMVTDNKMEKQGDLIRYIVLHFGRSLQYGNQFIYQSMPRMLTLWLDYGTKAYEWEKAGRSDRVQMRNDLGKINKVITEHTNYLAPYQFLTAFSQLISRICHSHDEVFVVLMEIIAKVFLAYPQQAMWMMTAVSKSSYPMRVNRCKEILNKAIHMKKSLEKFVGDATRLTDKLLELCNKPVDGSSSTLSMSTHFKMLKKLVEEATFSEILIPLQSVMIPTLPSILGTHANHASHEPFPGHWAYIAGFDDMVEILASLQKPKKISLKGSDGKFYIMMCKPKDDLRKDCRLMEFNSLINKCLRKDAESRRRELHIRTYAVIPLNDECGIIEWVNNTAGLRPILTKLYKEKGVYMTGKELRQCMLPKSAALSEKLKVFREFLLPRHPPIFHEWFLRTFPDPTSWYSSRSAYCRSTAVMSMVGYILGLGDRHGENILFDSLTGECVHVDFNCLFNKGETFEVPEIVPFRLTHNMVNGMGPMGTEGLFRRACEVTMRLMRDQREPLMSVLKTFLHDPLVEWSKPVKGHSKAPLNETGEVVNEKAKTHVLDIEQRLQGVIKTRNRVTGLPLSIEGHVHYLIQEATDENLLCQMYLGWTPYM
Format: biochemical
Description: Compounds were screened for their ability to inhibit ATR kinase using a radioactive-phosphate incorporation assay. Assays were carried out in a mixture of 50 mM Tris/HCl (pH 7.5), 10 mM MgCl2 and 1 mM DTT. Final substrate concentrations were 10 μM [γ-33P]ATP (3mCi 33P ATP/mmol ATP, Perkin Elmer) and 800 μM target peptide (ASELPASQPQPFSAKKK).
Assays were carried out at 25° C. in the presence of 5 nM full-length ATR. An assay stock buffer solution was prepared containing all of the reagents listed above, with the exception of ATP and the test compound of interest. 13.5 μL of the stock solution was placed in a 96 well plate followed by addition of 2 μL of DMSO stock containing serial dilutions of the test compound (typically starting from a final concentration of 15 μM with 3-fold serial dilutions) in duplicate (final DMSO concentration 7%). The plate was pre-incubated for 10 minutes at 25° C. and the reaction initiated by addition of 15 μL [γ-33P]ATP (final concentration 10 μM).
The reaction was stopped after […] by the addition of 30 μL 0.1M phosphoric acid containing 2 mM ATP. A multiscreen phosphocellulose filter 96-well plate (Millipore, Cat no. MAPHN0B50) was pretreated with 100 μL 0.2M phosphoric acid prior to the addition of 45 μL of the stopped assay mixture. The plate was washed with 5×200 μL 0.2M phosphoric acid. After drying, 100 μL Optiphase ‘SuperMix’ liquid scintillation cocktail (Perkin Elmer) was added to the well prior to scintillation counting (1450 Microbeta Liquid Scintillation Counter, Wallac).
After removing mean background values for all of the data points, Ki(app) data were calculated from non-linear regression analysis of the initial rate data using the Prism software package (GraphPad Prism version 3.0cx for Macintosh, GraphPad Software, San Diego Calif., USA).
In the case of `Cc1ccc(-c2c[nH]c3ncc(-c4ccc(S(=O)(=O)C(C)C)cc4)nc23)cn1` [Compound I-51, 2-(4-isopropylsulfonylphenyl)-7-(6-methyl-3-pyridyl)-5H-pyrrolo[2,3-b]pyrazine], the Ki is reported as 10 to 50 nM.
For `CC(C)S(=O)(=O)c1ccc(-c2cnc3[nH]cc(-c4cncc(S(C)(=O)=O)c4)c3n2)cc1` [Compound I-48, 2-(4-isopropylsulfonylphenyl)-7-(5-methylsulfonyl-3-pyridyl)-5H-pyrrolo[2,3-b]pyrazine], the Ki was 10 to 50 nM.
For `CC(C)S(=O)(=O)c1ccc(-c2cnc3[nH]cc(-c4scc5c4OCCO5)c3n2)cc1` [Compound I-20, 7-(2,3-dihydrothieno[3,4-b][1,4]dioxin-5-yl)-2-(4-isopropylsulfonylphenyl)-5H-pyrrolo[2,3-b]pyrazine], the Ki was 10 to 50 nM.
In the case of `CC(C)S(=O)(=O)c1ccc(-c2cnc3[nH]cc(-c4cc5ccccc5o4)c3n2)cc1` [Compound I-36, 7-(benzofuran-2-yl)-2-(4-isopropylsulfonylphenyl)-5H-pyrrolo[2,3-b]pyrazine], the Ki is reported as 10 to 50 nM.
Compound `CC(C)S(=O)(=O)c1ccc(-c2cnc3[nH]cc(-c4cc5c(Cl)cccc5n4C(=O)OC(C)(C)C)c3n2)cc1` [Compound I-58, tert-butyl 4-chloro-2-[2-(4-isopropylsulfonylphenyl)-5H-pyrrolo[2,3-b]pyrazin-7-yl]indole-1-carboxylate] has a Ki of over 50 nM.
`CC(C)S(=O)(=O)c1ccc(-c2cnc3[nH]cc(-c4cc5cc(F)ccc5n4C(=O)OC(C)(C)C)c3n2)cc1` [Compound I-56, tert-butyl 5-fluoro-2-[2-(4-isopropylsulfonylphenyl)-5H-pyrrolo[2,3-b]pyrazin-7-yl]indole-1-carboxylate] showed a Ki of over 50 nM.
Compound `COc1cccc(-c2c[nH]c3ncc(-c4ccc(S(=O)(=O)C(C)C)cc4)nc23)c1` [Compound I-30, 2-(4-isopropylsulfonylphenyl)-7-(3-methoxyphenyl)-5H-pyrrolo[2,3-b]pyrazine] has a Ki of 10 to 50 nM.
`CC(C)S(=O)(=O)c1ccc(-c2cnc3[nH]cc(-c4ccc5ncccc5c4)c3n2)cc1` [Compound I-40, 6-[2-(4-isopropylsulfonylphenyl)-5H-pyrrolo[2,3-b]pyrazin-7-yl]quinoline] was tested, and the Ki was at most 10 nM.
In the case of `CC(C)S(=O)(=O)c1ccc(-c2cnc3[nH]cc(-c4ccc5[nH]ccc5c4)c3n2)cc1` [Compound I-35, 7-(1H-indol-5-yl)-2-(4-isopropylsulfonylphenyl)-5H-pyrrolo[2,3-b]pyrazine], the Ki is reported as 10 to 50 nM.
For `CC(C)S(=O)(=O)c1ccc(-c2cnc3[nH]cc(-c4ccccc4C(N)=O)c3n2)cc1` [Compound I-18, 2-[2-(4-isopropylsulfonylphenyl)-5H-pyrrolo[2,3-b]pyrazin-7-yl]benzamide], the Ki was over 50 nM.
`CC(C)S(=O)(=O)c1ccc(-c2cnc3[nH]cc(-c4ccc(N(C)C)nc4)c3n2)cc1` [Compound I-37, 5-[2-(4-isopropylsulfonylphenyl)-5H-pyrrolo[2,3-b]pyrazin-7-yl]-N,N-dimethyl-pyridin-2-amine] showed a Ki of 10 to 50 nM.
`CC(C)S(=O)(=O)c1ccc(-c2cnc3[nH]cc(-c4cnc5[nH]ccc5c4)c3n2)cc1` [Compound I-6, 2-(4-isopropylsulfonylphenyl)-7-(1H-pyrrolo[2,3-b]pyridin-5-yl)-5H-pyrrolo[2,3-b]pyrazine] showed a Ki of at most 10 nM.
`CC(C)S(=O)(=O)c1ccc(-c2cnc3[nH]cc(-c4cccnc4)c3n2)cc1` [Compound I-1, 2-(4-Isopropylsulfonylphenyl)-7-(3-pyridyl)-5H-pyrrolo[2,3-b]pyrazine] was tested, and the Ki was 10 to 50 nM.
`CC(C)S(=O)(=O)c1ccc(-c2cnc3[nH]cc(-c4cccc(-c5nnn[nH]5)c4)c3n2)cc1` [Compound I-68, 2-(4-isopropylsulfonylphenyl)-7-[3-(1H-tetrazol-5-yl)phenyl]-5H-pyrrolo[2,3-b]pyrazine] gave a Ki of 10 to 50 nM.
`CC(C)S(=O)(=O)c1ccc(-c2cnc3[nH]cc(-c4ccncc4)c3n2)cc1` [Compound I-10, 2-(4-isopropylsulfonylphenyl)-7-(4-pyridyl)-5H-pyrrolo[2,3-b]pyrazine] gave a Ki of 10 to 50 nM.
With `CC(C)S(=O)(=O)c1ccc(-c2cnc3[nH]cc(-c4cccnc4F)c3n2)cc1` [Compound I-24, 7-(2-fluoro-3-pyridyl)-2-(4-isopropylsulfonylphenyl)-5H-pyrrolo[2,3-b]pyrazine] the Ki was at most 10 nM.
Work on `CC(C)S(=O)(=O)c1ccc(-c2cnc3[nH]cc(-c4ccccc4)c3n2)cc1` [Compound I-5, 2-(4-isopropylsulfonylphenyl)-7-phenyl-5H-pyrrolo[2,3-b]pyrazine] yielded a Ki of over 50 nM.
With `CC(C)S(=O)(=O)c1ccc(-c2cnc3[nH]cc(-c4ccnc5ccccc45)c3n2)cc1` [Compound I-43, 4-[2-(4-isopropylsulfonylphenyl)-5H-pyrrolo[2,3-b]pyrazin-7-yl]quinoline] the Ki was over 50 nM.
In the case of `CC(C)S(=O)(=O)c1ccc(-c2cnc3[nH]cc(-c4cccc5cnccc45)c3n2)cc1` [Compound I-41, 5-[2-(4-isopropylsulfonylphenyl)-5H-pyrrolo[2,3-b]pyrazin-7-yl]isoquinoline], the Ki is reported as over 50 nM.
With `COc1ccc(-c2c[nH]c3ncc(-c4ccc(S(=O)(=O)C(C)C)cc4)nc23)cn1` [Compound I-31, 2-(4-isopropylsulfonylphenyl)-7-(6-methoxy-3-pyridyl)-5H-pyrrolo[2,3-b]pyrazine] the Ki was over 50 nM.
Work on `CC(C)S(=O)(=O)c1ccc(-c2cnc3[nH]cc(-c4cnc(N)nc4)c3n2)cc1` [Compound I-13, 5-[2-(4-isopropylsulfonylphenyl)-5H-pyrrolo[2,3-b]pyrazin-7-yl]pyrimidin-2-amine] yielded a Ki of at most 10 nM.
`CC(C)S(=O)(=O)c1ccc(-c2cnc3[nH]cc(-c4cnn(C)c4)c3n2)cc1` [Compound I-50, 2-(4-isopropylsulfonylphenyl)-7-(1-methylpyrazol-4-yl)-5H-pyrrolo[2,3-b]pyrazine] was tested, and the Ki was over 50 nM.
In the case of `CC(C)S(=O)(=O)c1ccc(-c2cnc3[nH]cc(-c4ccc(N)nc4)c3n2)cc1` [Compound I-53, 5-[2-(4-isopropylsulfonylphenyl)-5H-pyrrolo[2,3-b]pyrazin-7-yl]pyridin-2-amine], the Ki is reported as at most 10 nM.
With `CC(C)S(=O)(=O)c1ccc(-c2cnc3[nH]cc(-c4cscc4C#N)c3n2)cc1` [Compound I-21, 4-[2-(4-isopropylsulfonylphenyl)-5H-pyrrolo[2,3-b]pyrazin-7-yl]thiophene-3-carbonitrile] the Ki was over 50 nM.
`CC(C)S(=O)(=O)c1ccc(-c2cnc3[nH]cc(-c4cc5ccccc5s4)c3n2)cc1` [Compound I-45, 7-(benzothiophen-2-yl)-2-(4-isopropylsulfonylphenyl)-5H-pyrrolo[2,3-b]pyrazine] showed a Ki of 10 to 50 nM.
In the case of `CC(C)S(=O)(=O)c1ccc(-c2cnc3[nH]cc(-c4ccccc4O)c3n2)cc1` [Compound I-14, 2-[2-(4-isopropylsulfonylphenyl)-5H-pyrrolo[2,3-b]pyrazin-7-yl]phenol], the Ki is reported as 10 to 50 nM.
In the case of `CCn1cc(-c2c[nH]c3ncc(-c4ccc(S(=O)(=O)C(C)C)cc4)nc23)cn1` [Compound I-7, 7-(1-ethylpyrazol-4-yl)-2-(4-isopropylsulfonylphenyl)-5H-pyrrolo[2,3-b]pyrazine], the Ki is reported as over 50 nM.
Work on `CC(C)S(=O)(=O)c1ccc(-c2cnc3[nH]cc(-c4cc(-c5ccccc5)no4)c3n2)cc1` [Compound I-3, 5-[2-(4-Isopropylsulfonylphenyl)-5H-pyrrolo[2,3-b]pyrazin-7-yl]-3-phenyl-isoxazole] yielded a Ki of at most 10 nM.
Compound `COc1cc(-c2c[nH]c3ncc(-c4ccc(S(=O)(=O)C(C)C)cc4)nc23)c(F)cn1` [Compound I-39, 7-(5-fluoro-2-methoxy-4-pyridyl)-2-(4-isopropylsulfonylphenyl)-5H-pyrrolo[2,3-b]pyrazine] has a Ki of over 50 nM.
`CC(C)S(=O)(=O)c1ccc(-c2cnc3[nH]cc(-c4cncc(C(C)(C)O)c4)c3n2)cc1` [Compound I-66, 2-[5-[2-(4-isopropylsulfonylphenyl)-5H-pyrrolo[2,3-b]pyrazin-7-yl]-3-pyridyl]propan-2-ol] gave a Ki of at most 10 nM.
`COc1ncc(-c2c[nH]c3ncc(-c4ccc(S(=O)(=O)C(C)C)cc4)nc23)cc1C` [Compound I-38, 2-(4-isopropylsulfonylphenyl)-7-(6-methoxy-5-methyl-3-pyridyl)-5H-pyrrolo[2,3-b]pyrazine] was tested, and the Ki was 10 to 50 nM.
`CC(C)S(=O)(=O)c1ccc(-c2cnc3[nH]cc(-c4sccc4C(=O)O)c3n2)cc1` [Compound I-63, 2-[2-(4-isopropylsulfonylphenyl)-5H-pyrrolo[2,3-b]pyrazin-7-yl]thiophene-3-carboxylic acid] gave a Ki of 10 to 50 nM.
For `CC(N)c1cccc(-c2cc(-c3c[nH]c4ncc(-c5ccc(S(=O)(=O)C(C)C)cc5)nc34)on2)c1` (stereo not shown) [Compound I-4, 1-[3-[5-[2-(4-isopropylsulfonylphenyl)-5H-pyrrolo[2,3-b]pyrazin-7-yl]isoxazol-3-yl]phenyl]ethanamine], the Ki was at most 10 nM.
`Cc1n[nH]c(C)c1-c1c[nH]c2ncc(-c3ccc(S(=O)(=O)C(C)C)cc3)nc12` [Compound I-52, 7-(3,5-dimethyl-1H-pyrazol-4-yl)-2-(4-isopropylsulfonylphenyl)-5H-pyrrolo[2,3-b]pyrazine] gave a Ki of over 50 nM.
